The target in one test is Adenosine receptor A2a (Homo sapiens, UniProt P29274). Description: Displacement of [3H]NECA from human adenosine A2A receptor expressed in CHO cells.
The target in a further test is T1, Adenosine receptor A1 (Homo sapiens, UniProt P30542).
T1 sequence (P30542 whole entry): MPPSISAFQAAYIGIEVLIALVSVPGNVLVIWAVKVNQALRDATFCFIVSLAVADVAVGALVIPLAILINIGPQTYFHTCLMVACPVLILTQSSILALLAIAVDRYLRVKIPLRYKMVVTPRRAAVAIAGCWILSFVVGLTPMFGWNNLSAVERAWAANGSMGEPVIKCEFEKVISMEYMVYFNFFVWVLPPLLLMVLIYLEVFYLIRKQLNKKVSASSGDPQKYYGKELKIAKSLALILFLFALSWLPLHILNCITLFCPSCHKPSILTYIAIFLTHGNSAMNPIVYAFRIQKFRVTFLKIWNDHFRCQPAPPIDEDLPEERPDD
Description: Displacement of [3H]DPCPX from human adenosine A1 receptor expressed in CHO cells. On the technique in general: Loss of bound radioactivity is the signal in a displacement assay; it reports binding, not function.

Results on two compounds are retold here after BindingDB's records for doi:10.1021/jm050792d (University of Naples Federico II, 2005).

The term Ki denotes the equilibrium dissociation constant of an inhibitor or competing ligand from its target. A high value points to weaker binding.

Each structure is given as a SMILES string.

Chain of Adenosine receptor A2a (P29274 whole entry): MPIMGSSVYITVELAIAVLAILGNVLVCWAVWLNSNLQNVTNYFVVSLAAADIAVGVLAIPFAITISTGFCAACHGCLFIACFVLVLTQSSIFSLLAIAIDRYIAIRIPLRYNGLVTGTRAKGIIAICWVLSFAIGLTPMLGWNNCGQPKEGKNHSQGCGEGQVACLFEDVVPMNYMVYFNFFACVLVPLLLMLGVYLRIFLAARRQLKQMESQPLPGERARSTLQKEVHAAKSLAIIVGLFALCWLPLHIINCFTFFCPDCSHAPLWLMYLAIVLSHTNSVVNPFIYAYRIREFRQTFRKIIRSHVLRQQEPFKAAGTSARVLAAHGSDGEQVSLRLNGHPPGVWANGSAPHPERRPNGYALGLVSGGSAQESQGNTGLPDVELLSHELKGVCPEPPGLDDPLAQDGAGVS

As to `O=c1c2[nH]nnc2nc2n1CCCS2` [7,8-Dihydro-3H,6H-5-thia-1,2,3,4,8a-pentaaza-cyclopenta[b]naphthalen-9-one], the Ki at Adenosine receptor A2a and on Adenosine receptor A1 was > 10 µM in each case.
With `CC1CSc2nc3nn[nH]c3c(=O)n21` (centres undefined) [7-methyl-6,7-dihydro[1,3]thiazolo[3,2-a][1,2,3]triazolo[4,5-d]pyrimidin-9(3H)-one], the inhibition constant Ki at Adenosine receptor A2a and on Adenosine receptor A1 was > 10 µM in each case.
